According to the supplement of paper PMC11061612:

Experiments:
Lapatinib = compound: CS(=O)(=O)CCNCc1ccc(-c2ccc3ncnc(Nc4ccc(OCc5cccc(F)c5)c(Cl)c4)c3c2)o1 [Lapatinib]; conditions: max 10 µM
Method in brief: (§1)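 After 24 hours at 37°C and 5% CO2 in 1536-well plates holding 7.5 μl of DMEM/F12 or RPMI with 10% FBS, cancer cell lines were dosed for 72 hours, with final DMSO typically 0.2%. Viability came from CellTiter-Glo 2.0 luminescence, scaled between the means of blank wells and DMSO wells. A non-linear mixed effects model fitted a two-parameter logistic curve to each dose response to give the single-agent IC50.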

AZD8186 = compound: C[C@@H](Nc1cc(F)cc(F)c1)c1cc(C(=O)N(C)C)cc2c(=O)cc(N3CCOCC3)oc12 [AZD8186]; conditions: max 3 µM
Method in brief: as §1

AZD4320 = compound: CN(CC[C@H](CSC1=CC=CC=C1)NC2=C(C=C(C=C2)S(=O)(=O)NC(=O)C3=CC=C(C=C3)N4CCC(CC4)[C@H](C5=CC=CC=C5C6=CC=C(C=C6)Cl)O)S(=O)(=O)C(F)(F)F)CCO [AZD4320]; conditions: max 1 µM
Method in brief: as §1

Olaparib = compound: O=C(c1cc(Cc2n[nH]c(=O)c3ccccc23)ccc1F)N1CCN(C(=O)C2CC2)CC1 [Olaparib]; conditions: max 10 µM
Method in brief: as §1

SN-38 = compound: CCc1c2c(nc3ccc(O)cc13)-c1cc3c(c(=O)n1C2)COC(=O)[C@]3(O)CC [SN-38]; conditions: max 0.3 µM
Method in brief: as §1

SG3199 = compound: CC1=CN2[C@@H](C1)C=NC3=CC(=C(C=C3C2=O)OC)OCCCCCOC4=C(C=C5C(=C4)N=C[C@@H]6CC(=CN6C5=O)C)OC [SG3199]; conditions: max 0.001 µM
Method in brief: as §1

Taselisib = compound: Cc1nc(-c2cn3c(n2)-c2ccc(-c4cnn(C(C)(C)C(N)=O)c4)cc2OCC3)n(C(C)C)n1 [Taselisib]; conditions: max 10 µM
Method in brief: as §1

Trametinib = compound: CC(=O)Nc1cccc(-n2c(=O)n(C3CC3)c(=O)c3c(Nc4ccc(I)cc4F)n(C)c(=O)c(C)c32)c1 [Trametinib]; conditions: max 1 µM
Method in brief: as §1

Capivasertib = compound: C1CN(CCC1(C(=O)N[C@@H](CCO)C2=CC=C(C=C2)Cl)N)C3=NC=NC4=C3C=CN4 [Capivasertib]; conditions: max 10 µM
Method in brief: as §1

Savolitinib = compound: C[C@@H](c1ccc2nccn2c1)n1nnc2ncc(-c3cnn(C)c3)nc21 [Savolitinib]; conditions: max 1 µM
Method in brief: as §1

Gefitinib = compound: COc1cc2ncnc(Nc3ccc(F)c(Cl)c3)c2cc1OCCCN1CCOCC1 [Gefitinib]; conditions: max 10 µM
Method in brief: as §1

Selumetinib = compound: Cn1cnc2c(F)c(Nc3ccc(Br)cc3Cl)c(C(=O)NOCCO)cc21 [Selumetinib]; conditions: max 10 µM
Method in brief: as §1

AZD0156 = compound: CN(C)CCCOc1ccc(-c2ccc3ncc4c(c3c2)n(C2CCOCC2)c(=O)n4C)cn1 [AZD0156]; conditions: max 3 µM
Method in brief: as §1

Doxorubicin = compound: COc1cccc2c1C(=O)c1c(O)c3c(c(O)c1C2=O)C[C@@](O)(C(=O)CO)C[C@@H]3O[C@H]1C[C@H](N)[C@H](O)[C@H](C)O1 [Doxorubicin]; conditions: max 1 µM
Method in brief: as §1

Dasatinib = compound: CC1=C(C(=CC=C1)Cl)NC(=O)C2=CN=C(S2)NC3=CC(=NC(=N3)C)N4CCN(CC4)CCO [Dasatinib]; conditions: max 2 µM
Method in brief: as §1

AZD1390 = compound: CC(C)n1c(=O)n(C)c2cnc3cc(F)c(-c4ccc(OCCCN5CCCCC5)nc4)cc3c21 [AZD1390]; conditions: max 0.3 µM
Method in brief: as §1

Palbociclib = compound: CC(=O)c1c(C)c2cnc(Nc3ccc(N4CCNCC4)cn3)nc2n(C2CCCC2)c1=O [Palbociclib]; conditions: max 10 µM
Method in brief: as §1

Prexasertib = compound: COc1cccc(OCCCN)c1-c1cc(Nc2cnc(C#N)cn2)n[nH]1 [Prexasertib]; conditions: max 1 µM
Method in brief: as §1

Crizotinib = compound: C[C@@H](Oc1cc(-c2cnn(C3CCNCC3)c2)cnc1N)c1c(Cl)ccc(F)c1Cl [Crizotinib]; conditions: max 10 µM
Method in brief: as §1

Venetoclax = compound: CC1(C)CCC(CN2CCN(c3ccc(C(=O)NS(=O)(=O)c4ccc(NCC5CCOCC5)c([N+](=O)[O-])c4)c(Oc4cnc5[nH]ccc5c4)c3)CC2)=C(c2ccc(Cl)cc2)C1 [Venetoclax]; conditions: max 1 µM
Method in brief: as §1

AZD2811 = compound: CCN(CCO)CCCOc1ccc2c(Nc3cc(CC(=O)Nc4cccc(F)c4)[nH]n3)ncnc2c1 [AZD2811]; conditions: max 1 µM
Method in brief: as §1

AZD6738 = compound: C[C@@H]1COCCN1C2=NC(=NC(=C2)C3(CC3)[S@](=N)(=O)C)C4=C5C=CNC5=NC=C4 [AZD6738]; conditions: max 10 µM
Method in brief: as §1

AZD5991 = compound: Cc1c2c(nn1C)CSCc1cc(n(C)n1)CSc1cc(c3ccccc3c1)OCCCc1c(C(=O)O)n(C)c3c-2c(Cl)ccc13 [AZD5991]; conditions: max 1 µM
Method in brief: as §1

MK-2206 = compound: NC1(c2ccc(-c3nc4ccn5c(=O)[nH]nc5c4cc3-c3ccccc3)cc2)CCC1 [MK-2206]; conditions: max 10 µM
Method in brief: as §1

AZD1775 = compound: C=CCn1c(=O)c2cnc(Nc3ccc(N4CCN(C)CC4)cc3)nc2n1-c1cccc(C(C)(C)O)n1 [AZD1775]; conditions: max 3 µM
Method in brief: as §1

AZD5153 = compound: COc1nnc2ccc(N3CCC(c4ccc(OCCN5CCN(C)C(=O)[C@H]5C)cc4)CC3)nn12 [AZD5153]; conditions: max 1 µM
Method in brief: as §1

Alisertib = compound: COc1cc(Nc2ncc3c(n2)-c2ccc(Cl)cc2C(c2c(F)cccc2OC)=NC3)ccc1C(=O)O [Alisertib]; conditions: max 10 µM
Method in brief: as §1

AZD7648 = compound: Cc1cc2ncnn2cc1Nc1ncc2c(n1)n(C1CCOCC1)c(=O)n2C [AZD7648]; conditions: max 10 µM
Method in brief: as §1

Row | Cell Line | IC50, cell viability 72 h (Lapatinib) [µM] | IC50, cell viability 72 h (AZD8186) [µM] | IC50, cell viability 72 h (AZD4320) [µM] | IC50, cell viability 72 h (Olaparib) [µM] | IC50, cell viability 72 h (SN-38) [µM] | IC50, cell viability 72 h (SG3199) [µM] | IC50, cell viability 72 h (Taselisib) [µM] | IC50, cell viability 72 h (Trametinib) [µM] | IC50, cell viability 72 h (Capivasertib) [µM] | IC50, cell viability 72 h (Savolitinib) [µM] | IC50, cell viability 72 h (Gefitinib) [µM] | IC50, cell viability 72 h (Selumetinib) [µM] | IC50, cell viability 72 h (AZD0156) [µM] | IC50, cell viability 72 h (Doxorubicin) [µM] | IC50, cell viability 72 h (Dasatinib) [µM] | IC50, cell viability 72 h (AZD1390) [µM] | IC50, cell viability 72 h (Palbociclib) [µM] | IC50, cell viability 72 h (Prexasertib) [µM] | IC50, cell viability 72 h (Crizotinib) [µM] | IC50, cell viability 72 h (Venetoclax) [µM] | IC50, cell viability 72 h (AZD2811) [µM] | IC50, cell viability 72 h (AZD6738) [µM] | IC50, cell viability 72 h (AZD5991) [µM] | IC50, cell viability 72 h (MK-2206) [µM] | IC50, cell viability 72 h (AZD1775) [µM] | IC50, cell viability 72 h (AZD5153) [µM] | IC50, cell viability 72 h (Alisertib) [µM] | IC50, cell viability 72 h (AZD7648) [µM]
1 | HCC1954 (Breast Carcinoma) | 6.26 | > 3 | > 1 | > 10 | > 0.3 | > 0.001 | 0.122 | > 1 | 3.24 | > 1 | > 10 | > 10 | > 3 | > 1 | > 2 | > 0.3 | > 10 | 0.0598 | > 10 | > 1 | > 1 | > 10 | 0.133 | > 10 | 1.97 | > 1 | > 10 | > 10
2 | Hs-445 (Non-Cancerous) | > 10 | > 3 | 0.224 | > 10 | 0.00333 | > 0.001 | 9.18 | > 1 | 3.88 | > 1 | > 10 | > 10 | > 3 | 0.146 | > 2 | > 0.3 | > 10 | 0.0039 | > 10 | > 1 | > 1 | 2.09 | 0.213 |  | 0.134 | > 1 | > 10 | > 10
3 | JSC-1 (B-Cell Non-Hodgkin's Lymphoma) | > 10 | > 3 | > 1 | > 10 | 0.00211 | > 0.001 | > 10 | 0.26 | 7.45 | > 1 | > 10 | 4.68 | > 3 | 0.12 | > 2 | > 0.3 | 5.84 | 0.00524 | 6.19 | > 1 | > 1 | 1.86 | 0.0334 |  | 0.328 | 0.0667 | 7.11 | > 10
4 | LN-405 (Glioblastoma) | > 10 | > 3 | > 1 | > 10 | > 0.3 | > 0.001 | 6.55 | > 1 | > 10 | > 1 | > 10 | > 10 | > 3 | > 1 | > 2 | > 0.3 | > 10 | > 1 | > 10 | > 1 | > 1 | > 10 | > 1 | > 10 | > 3 | > 1 | > 10 | > 10
5 | MDST8 (Colorectal Carcinoma) | > 10 | > 3 | 0.89 | > 10 | 0.0156 | > 0.001 | > 10 | 0.0199 | > 10 | > 1 | > 10 | 1.15 | > 3 | 0.224 | > 2 | > 0.3 | > 10 | 0.025 | > 10 | > 1 | > 1 | 7.45 | > 1 |  | 0.875 | > 1 | > 10 | > 10
6 | NCI-H1650 (Lung Adenocarcinoma) | > 10 | > 3 | > 1 | > 10 | > 0.3 | > 0.001 | > 10 | > 1 | > 10 | > 1 | > 10 | > 10 | > 3 | > 1 | > 2 | > 0.3 | > 10 | 0.472 | > 10 | > 1 | > 1 | > 10 | > 1 |  | > 3 | > 1 | > 10 | > 10
7 | NCI-H1693 (Lung Adenocarcinoma) | > 10 | > 3 | > 1 | > 10 | 0.0872 | > 0.001 | > 10 | > 1 | > 10 | > 1 | > 10 | > 10 | > 3 | > 1 | > 2 | > 0.3 | > 10 | > 1 | > 10 | > 1 | > 1 | > 10 | > 1 |  | > 3 | > 1 | > 10 | > 10
